In assay [1] the target is vinculin (UniProt P18206).
In the next assay the test system is resting platelets. Nature of the assay: Platelet aggregation induced by peptide in resting washed platelets (activation). In kind it is cell-based, human (healthy volunteers). To be noted: peptide 50 µM; for Platelet activation, donor 14 06 13 / Platelet activation, donor 18 06 13 / Platelet activation, donor 22 08 13 DONOR1 / Platelet activation, donor 22 08 13 DONOR2: Fig S10 sheet, unit assumed; for Platelet activation, donor 14 06 13: replicate 14_06_13; for Platelet activation, donor 18 06 13: replicate 18_06_13; for Platelet activation, donor 22 08 13 DONOR1: replicate 22_08_13_DONOR1; for Platelet activation, donor 22 08 13 DONOR2: replicate 22_08_13_DONOR2. Put shortly: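 Washed human platelets (from ACD blood, PGE1-treated) were used at 3x10^5/μl in buffer A pH 7.4 with 1.8 mM CaCl2. Light-transmission aggregometry ran at 37°C with stirring at 1100 rpm. Peptide or buffer was added at 2 min, TRAP 6 min later, and aggregation was recorded for a further 7 min.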

The target of assay [2] is T1, vinculin (Homo sapiens, UniProt P18206).
T1 sequence (P18206 1-1066 isoform P18206-2): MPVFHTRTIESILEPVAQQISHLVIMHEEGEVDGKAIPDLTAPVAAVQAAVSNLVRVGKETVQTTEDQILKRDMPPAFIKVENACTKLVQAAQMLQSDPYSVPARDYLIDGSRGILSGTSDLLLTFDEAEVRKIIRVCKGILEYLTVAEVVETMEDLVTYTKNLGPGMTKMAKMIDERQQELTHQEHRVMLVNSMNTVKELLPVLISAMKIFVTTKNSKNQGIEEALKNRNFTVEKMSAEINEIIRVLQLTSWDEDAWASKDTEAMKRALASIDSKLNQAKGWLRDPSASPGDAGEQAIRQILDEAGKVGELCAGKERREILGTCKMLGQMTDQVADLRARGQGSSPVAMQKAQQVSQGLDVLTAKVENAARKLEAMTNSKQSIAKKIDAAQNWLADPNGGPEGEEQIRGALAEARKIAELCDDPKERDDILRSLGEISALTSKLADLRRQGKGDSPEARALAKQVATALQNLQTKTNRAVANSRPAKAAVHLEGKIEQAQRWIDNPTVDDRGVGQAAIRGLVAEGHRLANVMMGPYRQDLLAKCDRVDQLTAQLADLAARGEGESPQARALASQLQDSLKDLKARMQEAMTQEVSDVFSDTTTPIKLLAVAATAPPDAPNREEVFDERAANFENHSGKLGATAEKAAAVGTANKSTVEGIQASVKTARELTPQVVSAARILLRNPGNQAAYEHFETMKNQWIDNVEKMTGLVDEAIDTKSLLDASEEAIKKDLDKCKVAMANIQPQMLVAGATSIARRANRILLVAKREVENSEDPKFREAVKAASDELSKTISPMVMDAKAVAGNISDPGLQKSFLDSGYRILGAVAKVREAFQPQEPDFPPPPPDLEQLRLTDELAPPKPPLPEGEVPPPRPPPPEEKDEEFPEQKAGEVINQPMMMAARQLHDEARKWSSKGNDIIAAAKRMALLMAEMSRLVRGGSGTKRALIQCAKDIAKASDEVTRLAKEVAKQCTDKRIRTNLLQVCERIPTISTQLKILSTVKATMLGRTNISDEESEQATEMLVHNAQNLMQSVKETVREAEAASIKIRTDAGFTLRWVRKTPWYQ
Nature of the assay: Surface plasmon resonance, peptides injected over immobilised vinculin. The format is binding. The conditions noted are these: SPR, CM5 chip, serial peptide injections at 1 mM; rank order. As to the method:
The SPR experiments were performed using a Biacore T200 system (GE Healthcare), and Series S CM5 or SA chips with 4 flow cells each.
Lyophilized vinculin was dissolved in flow buffer to a concentration of 1 mg/ml and covalently coupled onto the carboxymethylated dextran matrix of CM5 sensor chips using standard amine coupling. The flow buffer contained 10 mM HEPES, 150 mM NaCl, 3 mM EDTA, 0.05% surfactant P20. The chip was activated with an injection of 70 μl of a mixture of 0.05 M EDC and 0.2 M NHS, followed by the injection of approximately 70 μl of 10 μg/ml vinculin in 10 mM sodium acetate, pH 5.0 in one flow cell to yield a response of 7200 RU. Remaining reactive groups in the channel were blocked with an injection of 100 μl ethanolamine. Binding experiments were performed by injecting peptides for 120 s at a flow rate of 20 μl/min, at a concentration of 1 mM in the flow buffer over the chip surface to monitor association kinetics, followed by buffer flow for 120 s to measure dissociation kinetics. Between experiments, the surface was regenerated by injecting a 60 second pulse of 10 mM glycine pH 2.
For orientation: SPR reads the build-up and loss of mass on a sensor chip optically.

The target of another assay is Syntenin-1 (UniProt O00560).

No end group written: not given here. *: point of attachment. Palmitoyl = CCCCCCCCCCCCCCCC(=O)*

Chain of Syntenin-1 (O00560 whole entry): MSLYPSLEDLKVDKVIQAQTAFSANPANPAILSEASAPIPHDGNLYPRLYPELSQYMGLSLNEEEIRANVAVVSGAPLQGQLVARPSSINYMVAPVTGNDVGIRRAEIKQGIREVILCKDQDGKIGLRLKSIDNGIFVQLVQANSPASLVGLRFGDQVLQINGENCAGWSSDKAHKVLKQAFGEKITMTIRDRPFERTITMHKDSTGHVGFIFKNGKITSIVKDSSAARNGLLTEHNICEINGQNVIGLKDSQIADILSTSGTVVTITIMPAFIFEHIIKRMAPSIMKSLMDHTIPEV

In the assay with vinculin [1], tat-ACTN1_VBS (peptide) returned an Activation: platelet aggregation induced in resting platelets after 6 minutes incubation with peptides (50μM) of 66.
In the assay with resting platelets, “ACTN1_VBS: ACTN1_VBS peptide lacking the tat (WEQLLTTIARTINEVENQI)” showed a Platelet activation, donor 14 06 13 of 35%; a Platelet activation, donor 18 06 13 of 11%; a Platelet activation, donor 22 08 13 DONOR1 of 7%; a Platelet activation, donor 22 08 13 DONOR2 of 11%. Besides, the “Relative binding affinity to immobilised vinculin” value with vinculin [2] was “tat-ACTN1_VBS > TLN1_VBS-tat > ACTN1_VBS-tat > ACTN1_VBS”.
Take “ACTN1_VBS-tat: ACTN1 vinculin-binding peptide with the tat peptide at the C-terminus (WEQLLTTIARTINEVENQIGRKKRRQRRRPPQ)”: in the assay on resting platelets, the Platelet activation, donor 14 06 13 is 45%; the Platelet activation, donor 18 06 13 amounted to 11%; the Platelet activation, donor 22 08 13 DONOR1 came out at 32%; the Platelet activation, donor 22 08 13 DONOR2 turned out to be 4%. In addition, the “Platelet activating effect compared with N-terminal tat attachment” value in the assay on resting platelets (S10 Fig, in words) was “weaker platelet activating effect”. Besides, the “Relative binding affinity to immobilised vinculin” value with vinculin [2] is listed as “tat-ACTN1_VBS > TLN1_VBS-tat > ACTN1_VBS-tat > ACTN1_VBS”.

B1: pal-SDC4_tail (peptide)
peptide: Palmitoyl-APTNEFYA
With B1, in the assay with Syntenin-1, the Inhibition: platelet aggregation induced by 4μM TRAP in platelets pre-incubated with peptide (20μM) was 34.

The values above are taken from article PMC6349357, “Computational and experimental analysis of bioactive peptide linear motifs in the integrin adhesome” (PLoS ONE, 2019).
